How the values were obtained:
CHOK1-mαvβ5 cells = molecular target: T1, CHOK1-mαvβ5 cells (Mus musculus, UniProt O70309+P43406); assay: Cell adhesion assay (Epic) on vitronectin; format: cell-based; settings: vitronectin matrix; in words
T1 construct: expressed in transfected cells
Method: (§1) For plate preparation, Epic 384-well assay plates (Corning #5040) were washed with OptiMEM (Gibco #31985-070) and coated with murine fibronectin (Abcam #ab92784) at a concentration of 0.1 μg/well for CHO-a5KO-mαvβ1 cells; murine vitronectin (Abcam #ab92727) at 0.075 μg/well for CHO-mαvβ3 cells; or murine vitronectin at 0.125 μg/well for CHO-mαvβ5 (all at a volume of 25 μl/well in OptiMEM), for 1 h. Coating solution was then removed by flicking and plates were washed with OptiMEM and blocked with 25 μl/well of assay buffer [1% Ovalbumin (Sigma #A5503-10G) in OptiMEM containing 1X Pen-Strep (Gibco #15140-148)]. A 5-min baseline reading was taken on a Corning Epic Plate Reader (Model: Epic BT-157900) before removing the assay buffer and adding cells pre-incubated with inhibitors. The Epic plate reader detects cellular mass redistribution (adhesion) on the plate surface as a picometer wavelength shift over time. […] Cells were incubated with the inhibitors for 1 h at RT with gentle rocking, after which 50 μL per well was transferred to the Epic assay plate, and a time course of cell adhesion was monitored for an additional 3 h.

CHOK1-mαvβ3 cells = molecular target: T2, CHOK1-mαvβ3 cells (Mus musculus, UniProt O54890+P43406); assay: Cell adhesion assay (Epic) on vitronectin; format: cell-based; settings: vitronectin matrix; in words
T2 construct: expressed in transfected cells
Method: as §1

[1] = system: IPF patient lung fibroblasts; assay: TGFβ-induced αSMA high-content imaging; format: cell-based, human; settings: even at 10 μM
Method: Normal human lung fibroblasts (Lonza) and Primary Human IPF Lung Parenchymal Fibroblasts (Donor2) (BioIVT, #PCR-70-0214) were incubated at 37 °C and 5% CO2. To induce fibrotic response in primary cells, a final concentration of 5 ng/ml of recombinant human TGFβ1 (BioLegend, #580702) was added to the culture media and treated for 24 ~ 48 h. Anti-TGFβ neutralizing antibody (1D11) and the isotype control mouse IgG1 were from BioXcell. SB-525334 and bleomycin were from Sigma. MK-0429 was synthesized by Merck & Co., Inc., Kenilworth, NJ, USA. CHOK1-integrin stable lines were cultured in DMEM/F12, Glutamax (Gibco #10565018), 10% FBS (Gibco 310091148), 1 × Pen/Strep (Gibco 315140-148), and 6 ug/mL Puromycin (Gibco #A1113803).
Primary cells (passage 3–5) were grown on Cell carrier Ultra, col1 coated 96-well plates (Perkin Elmer, #6055700) at a density of 25,000 cells/well. Once the cells adhere, they were starved in serum free media for 24 h followed by addition of treatments i.e. 5 ng/mL TGFβ (Biolegend #580702) ± inhibitors. Cells were pre-treated with inhibitors for 30 min prior to the addition of TGFβ stimulation. 48hours post treatment, the cells were fixed in 4% methanol free paraformaldehyde (ThermoFisher Scientific #28908) for 20 min at room temperature and incubated with anti-alpha smooth muscle Actin antibody (Abcam #ab7817) at 1:4000 overnight at 4 °C. […]

T2 sequence (P43406 31-1044): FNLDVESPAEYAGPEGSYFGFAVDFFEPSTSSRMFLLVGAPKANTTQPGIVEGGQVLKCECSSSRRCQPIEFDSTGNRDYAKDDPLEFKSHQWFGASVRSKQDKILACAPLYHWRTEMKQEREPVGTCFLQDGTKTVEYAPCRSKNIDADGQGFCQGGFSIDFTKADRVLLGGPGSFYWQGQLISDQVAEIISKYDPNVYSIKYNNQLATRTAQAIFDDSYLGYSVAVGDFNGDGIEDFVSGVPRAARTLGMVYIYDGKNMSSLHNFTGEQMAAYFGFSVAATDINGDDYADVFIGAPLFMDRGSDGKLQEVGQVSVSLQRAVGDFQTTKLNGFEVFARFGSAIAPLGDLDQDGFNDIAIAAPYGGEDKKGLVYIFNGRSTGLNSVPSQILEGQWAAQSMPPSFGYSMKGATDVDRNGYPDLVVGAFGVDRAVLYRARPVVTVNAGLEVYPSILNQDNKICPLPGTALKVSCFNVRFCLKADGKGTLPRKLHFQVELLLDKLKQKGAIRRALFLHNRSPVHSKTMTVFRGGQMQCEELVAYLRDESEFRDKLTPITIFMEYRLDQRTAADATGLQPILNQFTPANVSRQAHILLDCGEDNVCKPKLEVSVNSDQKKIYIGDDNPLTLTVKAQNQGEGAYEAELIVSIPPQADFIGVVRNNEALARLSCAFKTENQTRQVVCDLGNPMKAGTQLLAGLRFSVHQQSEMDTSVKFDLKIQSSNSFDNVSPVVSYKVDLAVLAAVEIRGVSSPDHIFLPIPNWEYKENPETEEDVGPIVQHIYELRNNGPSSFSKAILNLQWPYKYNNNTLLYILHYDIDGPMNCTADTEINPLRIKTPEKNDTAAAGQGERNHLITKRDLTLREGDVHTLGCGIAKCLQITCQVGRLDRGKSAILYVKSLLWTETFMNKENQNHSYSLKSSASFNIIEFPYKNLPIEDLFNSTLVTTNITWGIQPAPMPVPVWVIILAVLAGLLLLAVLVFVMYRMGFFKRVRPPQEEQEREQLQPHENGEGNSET
T2 sequence (O54890 26-787): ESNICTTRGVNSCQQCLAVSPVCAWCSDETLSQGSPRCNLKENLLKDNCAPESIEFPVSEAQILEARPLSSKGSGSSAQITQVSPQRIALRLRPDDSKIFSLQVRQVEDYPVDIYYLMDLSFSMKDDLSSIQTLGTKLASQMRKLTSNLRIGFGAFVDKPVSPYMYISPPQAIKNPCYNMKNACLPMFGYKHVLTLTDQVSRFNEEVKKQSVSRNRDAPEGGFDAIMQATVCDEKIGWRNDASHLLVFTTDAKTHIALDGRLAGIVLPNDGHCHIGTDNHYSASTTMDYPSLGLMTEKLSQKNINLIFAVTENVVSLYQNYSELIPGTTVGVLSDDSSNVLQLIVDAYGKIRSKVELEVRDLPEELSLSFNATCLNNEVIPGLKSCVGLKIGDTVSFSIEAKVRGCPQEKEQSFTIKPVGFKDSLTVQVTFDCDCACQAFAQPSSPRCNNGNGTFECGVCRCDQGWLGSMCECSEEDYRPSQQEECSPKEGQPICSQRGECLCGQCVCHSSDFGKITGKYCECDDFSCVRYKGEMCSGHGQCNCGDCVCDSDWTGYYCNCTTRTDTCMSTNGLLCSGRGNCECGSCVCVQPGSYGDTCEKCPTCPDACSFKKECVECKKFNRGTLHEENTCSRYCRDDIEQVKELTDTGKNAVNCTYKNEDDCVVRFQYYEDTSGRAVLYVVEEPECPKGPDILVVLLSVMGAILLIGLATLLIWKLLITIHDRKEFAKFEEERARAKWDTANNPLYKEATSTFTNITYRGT
T1 sequence (P43406 31-1044): as the sequence (P43406 31-1044) above
T1 sequence (O70309 24-798): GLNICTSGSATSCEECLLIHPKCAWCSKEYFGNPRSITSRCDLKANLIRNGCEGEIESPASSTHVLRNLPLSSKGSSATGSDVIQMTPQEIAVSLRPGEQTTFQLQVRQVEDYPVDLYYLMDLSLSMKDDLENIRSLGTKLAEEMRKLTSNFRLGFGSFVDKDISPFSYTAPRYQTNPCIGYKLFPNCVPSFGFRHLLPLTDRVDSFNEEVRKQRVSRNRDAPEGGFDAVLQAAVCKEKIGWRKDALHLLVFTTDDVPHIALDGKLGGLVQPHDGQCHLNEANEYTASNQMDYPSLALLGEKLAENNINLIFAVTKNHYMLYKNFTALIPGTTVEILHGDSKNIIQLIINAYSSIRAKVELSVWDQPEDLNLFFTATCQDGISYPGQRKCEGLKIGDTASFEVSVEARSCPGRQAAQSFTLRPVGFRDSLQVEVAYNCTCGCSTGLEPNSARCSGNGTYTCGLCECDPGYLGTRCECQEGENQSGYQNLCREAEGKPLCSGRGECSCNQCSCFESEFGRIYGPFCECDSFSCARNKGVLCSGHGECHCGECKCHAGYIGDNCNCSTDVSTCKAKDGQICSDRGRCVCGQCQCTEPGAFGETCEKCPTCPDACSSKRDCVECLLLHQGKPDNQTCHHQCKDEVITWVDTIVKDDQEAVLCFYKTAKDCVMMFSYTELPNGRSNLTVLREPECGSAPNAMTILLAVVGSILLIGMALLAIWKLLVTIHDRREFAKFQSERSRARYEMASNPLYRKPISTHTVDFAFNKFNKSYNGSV

Effect on cell adhesion, mouse αvβ5 (CHOK1-mαvβ5 cells): decreased
Effect on cell adhesion, mouse αvβ3 (CHOK1-mαvβ3 cells): decreased
SMILES: COc1ccc(C(CC(=O)O)N2CCN(CCCc3ccc4c(n3)NCCC4)C2=O)cn1 (stereo not drawn) [MK-0429]
Inhibition of αSMA induction [1]: minimal activity

Source: PMC7822819, “Discovery of a new class of integrin antibodies for fibrosis” (Scientific Reports, 2021)
